Source: patent US7175853B1, “Therapeutic system which can be moisture-activated” (LTS Lohmann Therapie-Systeme AG, priority 1998, dated 2007)

Test: Dehydration behaviour of activators by Difference Scanning Calorimetry (DSC)
Format: physicochemical
Settings: FIG. 14a-c
Excerpt: The dehydration behaviour of these substances was examined in three example substances by Difference Scanning Calorimetry (DSC). This thermal analysis provides information on the stages of dehydration taking place under energy absorption, and on the respective typical temperature.

dehydration temperature: 86.5 °C
SMILES: O.O.O.O.O.O=[Si]([O-])[O-].[Na+].[Na+] [Na2SiO3.5H2O, sodium metasilicate pentahydrate]
